Experimental findings from patent US20240208992A1, “MACROCYCLES AS CFTR MODULATORS” (Idorsia Pharmaceuticals Ltd, priority 2021, published 2024) are described below.

pEC50: −log10 of the molar value.

The experiment addresses human F508del-CFTR (Homo sapiens, UniProt P13569, DEL508-508). The experiment can be described thus: F508del-CFTR cell surface expression (corrector activity), DiscoveRx ß-galactosidase complementation chemiluminescence assay in recombinant U2OS cell line.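 As to all read-outs here: U2OS cells co-expressing ProLink-tagged F508del-CFTR and a membrane-anchored enzyme acceptor, where more surface CFTR restores β-galactosidase activity measured by chemiluminescence.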 To be noted: for pEC50: EC50, F508del-CFTR cell surface expression, U2OS cells, 16h compound incubation, geomean values; for Emax: U2OS, in relation to Emax of corrector lumacaftor (=100%), arithmetic mean values.

Chain of human F508del-CFTR (P13569 with tags, fused parts or gaps DEL508-508): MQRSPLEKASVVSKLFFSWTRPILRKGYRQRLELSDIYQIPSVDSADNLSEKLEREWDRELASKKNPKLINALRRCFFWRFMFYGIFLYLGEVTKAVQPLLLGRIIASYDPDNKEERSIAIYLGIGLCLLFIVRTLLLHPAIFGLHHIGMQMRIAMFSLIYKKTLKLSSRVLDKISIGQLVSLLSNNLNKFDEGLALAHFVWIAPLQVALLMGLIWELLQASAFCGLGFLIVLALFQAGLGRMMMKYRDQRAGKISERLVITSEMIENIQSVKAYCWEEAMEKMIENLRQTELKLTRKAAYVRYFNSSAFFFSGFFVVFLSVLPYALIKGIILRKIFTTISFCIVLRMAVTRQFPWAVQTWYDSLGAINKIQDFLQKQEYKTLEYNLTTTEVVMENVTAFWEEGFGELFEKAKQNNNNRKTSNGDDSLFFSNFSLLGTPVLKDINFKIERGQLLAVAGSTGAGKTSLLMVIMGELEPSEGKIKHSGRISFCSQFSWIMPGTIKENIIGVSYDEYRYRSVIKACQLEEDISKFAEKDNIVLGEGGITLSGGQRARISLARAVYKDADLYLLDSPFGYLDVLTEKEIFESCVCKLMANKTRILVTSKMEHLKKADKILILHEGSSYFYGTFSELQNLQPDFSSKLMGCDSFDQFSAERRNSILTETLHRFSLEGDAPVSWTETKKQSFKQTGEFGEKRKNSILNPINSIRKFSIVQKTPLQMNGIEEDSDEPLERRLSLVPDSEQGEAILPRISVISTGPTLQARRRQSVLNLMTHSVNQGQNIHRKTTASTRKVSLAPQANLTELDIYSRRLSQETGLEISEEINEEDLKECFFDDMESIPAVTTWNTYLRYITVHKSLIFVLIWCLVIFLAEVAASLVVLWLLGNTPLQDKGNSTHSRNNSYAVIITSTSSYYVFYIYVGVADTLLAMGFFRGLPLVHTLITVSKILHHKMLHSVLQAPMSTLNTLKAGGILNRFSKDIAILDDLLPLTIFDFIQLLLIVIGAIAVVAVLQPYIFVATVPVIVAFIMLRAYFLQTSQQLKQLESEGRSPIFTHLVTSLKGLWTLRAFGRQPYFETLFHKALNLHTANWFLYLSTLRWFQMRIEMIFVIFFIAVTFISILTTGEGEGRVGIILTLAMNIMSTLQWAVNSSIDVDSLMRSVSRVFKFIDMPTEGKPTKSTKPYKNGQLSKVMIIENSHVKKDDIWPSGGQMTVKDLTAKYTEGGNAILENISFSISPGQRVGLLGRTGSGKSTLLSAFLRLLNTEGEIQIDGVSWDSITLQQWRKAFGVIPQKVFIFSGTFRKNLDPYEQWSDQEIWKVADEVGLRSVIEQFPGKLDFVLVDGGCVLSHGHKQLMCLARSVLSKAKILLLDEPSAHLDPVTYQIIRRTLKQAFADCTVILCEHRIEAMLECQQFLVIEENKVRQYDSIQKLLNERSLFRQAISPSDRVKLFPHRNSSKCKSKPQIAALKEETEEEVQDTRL

Regarding `COc1nccc2c1C(=O)N[C@H](C(=O)NCCc1cccc(-n3nccn3)c1)CC(=O)N(C)[C@@H](CC(C)C)C(=O)N1CCCC[C@@H]1C(=O)N[C@H](Cc1ccccc1)CO2` [Example 466, (7S,11S,17aR,20R)-N-(3-(2H-1,2,3-triazol-2-yl)phenethyl)-20-benzyl-11-isobutyl-4-methoxy-10-methyl-5,9,12,18-tetraoxo-5,6,7,8,9,10,11,12,15,16,17,17a,18,19,20,21-hexadecahydro-14H-dipyrido[2,1-f:3′,4′-p][1]oxa[4,7,10,14]tetraazacycloheptadecine-7-carboxamide], the pEC50 (as a rule, the negative decadic logarithm of the EC50, by convention in mol/L) was 6.26 and the Emax (as a rule, the maximal effect, on the per cent scale that the assay sets) worked out at 328%.
The corresponding values for `COc1nccc2c1C(=O)N[C@H](C(=O)NCCc1cccc(-n3nccn3)c1)CC(=O)N(C)[C@@H](CC(C)C)C(=O)N1CCCC[C@H]1C(=O)N[C@H](Cc1ccccc1)CO2` [Example 467, (7S,11S,17aS,20R)-N-(3-(2H-1,2,3-triazol-2-yl)phenethyl)-20-benzyl-11-isobutyl-4-methoxy-10-methyl-5,9,12,18-tetraoxo-5,6,7,8,9,10,11,12,15,16,17,17a,18,19,20,21-hexadecahydro-14H-dipyrido[2,1-f:3′,4′-p][1]oxa[4,7,10,14]tetraazacycloheptadecine-7-carboxamide] are 6.03 and 152%.
Take `COc1nccc2c1C(=O)N[C@H](C(=O)NCCc1ccc(-n3nccn3)cc1)CC(=O)N(C)[C@@H](CC(C)C)C(=O)N1CCCC[C@@H]1C(=O)N[C@H](Cc1ccccc1)CO2` [Example 468, (7S,11S,17aR,20R)-N-(4-(2H-1,2,3-triazol-2-yl)phenethyl)-20-benzyl-11-isobutyl-4-methoxy-10-methyl-5,9,12,18-tetraoxo-5,6,7,8,9,10,11,12,15,16,17,17a,18,19,20,21-hexadecahydro-14H-dipyrido[2,1-f:3′,4′-p][1]oxa[4,7,10,14]tetraazacycloheptadecine-7-carboxamide]: the pEC50 is 6.30 and the Emax worked out at 361%.
For `COc1cccc(CCNC(=O)[C@@H]2CC(=O)N(C)[C@@H](CC(C)C)C(=O)N3CCCC[C@@H]3C(=O)N[C@H](Cc3ccccc3)COc3nc4ccccn4c3C(=O)N2)c1` [Example 469, (7S,11S,22R,24aR)-22-benzyl-7-isobutyl-N-(3-methoxyphenethyl)-8-methyl-6,9,13,24-tetraoxo-1,3,4,6,7,8,9,10,11,12,13,21,22,23,24,24a-hexadecahydro-2H-pyrido[2,1-f]pyrido[2′,1′:2,3]imidazo[4,5-p][1]oxa[4,7,10,14]tetraazacycloheptadecine-11-carboxamide], the pEC50 is 6.42 and the Emax came out at 110%.
In the same order, the values of `Cc1cc(CCNC(=O)[C@@H]2CC(=O)N(C)[C@@H](CC(C)C)C(=O)N3CCCC[C@@H]3C(=O)N[C@H](Cc3ccccc3)COc3nc4ccccn4c3C(=O)N2)on1` [Example 470, (7S,11S,22R,24aR)-22-benzyl-7-isobutyl-8-methyl-N-(2-(3-methylisoxazol-5-yl)ethyl)-6,9,13,24-tetraoxo-1,3,4,6,7,8,9,10,11,12,13,21,22,23,24,24a-hexadecahydro-2H-pyrido[2,1-f]pyrido[2′,1′:2,3]imidazo[4,5-p][1]oxa[4,7,10,14]tetraazacycloheptadecine-11-carboxamide] are 6.18 and 169%.
`COc1cccc(CCNC(=O)[C@@H]2CC(=O)N(C)[C@@H](CC(C)C)C(=O)N(C)C3(CC3)C(=O)N[C@H](Cc3ccccc3)COc3ccc4cccnc4c3C(=O)N2)c1` [Example 471, (9′R,15′S,19′S)-9′-benzyl-15′-isobutyl-N-(3-methoxyphenethyl)-13′,16′-dimethyl-11′,14′,17′,21′-tetraoxo-8′,9′,10′,11′,14′,15′,16′,17′,18′,19′,20′,21′-dodecahydro-13′H-spiro[cyclopropane-1,12′-[1]oxa[4,7,10,14]tetraazacycloheptadecino[17,16-h]quinoline]-19′-carboxamide]: the pEC50 was 6.01 and the Emax worked out at 278%.
Regarding `CC(C)C[C@H]1C(=O)N2CCCC[C@@H]2C(=O)N[C@H](Cc2ccccc2)COc2ccc3ncccc3c2C(=O)N[C@H](C(=O)NCCc2ccc(-n3nccn3)cc2)CC(=O)N1C` [Example 472, (9S,13S,19aR,22R)-N-(4-(2H-1,2,3-triazol-2-yl)phenethyl)-22-benzyl-13-isobutyl-12-methyl-7,11,14,20-tetraoxo-7,8,9,10,11,12,13,14,17,18,19,19a,20,21,22,23-hexadecahydro-16H-pyrido[2′,1′:6,7][1]oxa[4,7,10,14]tetraazacycloheptadecino[16,17-f]quinoline-9-carboxamide], the pEC50 was 6.55 and the Emax is 239%.
In the same order, the values of `CC(C)C[C@H]1C(=O)N2CCCC[C@H]2C(=O)N[C@H](Cc2ccccc2)COc2ccc3ncccc3c2C(=O)N[C@H](C(=O)NCCc2ccc(-n3nccn3)cc2)CC(=O)N1C` [Example 473, (9S,13S,19aS,22R)-N-(4-(2H-1,2,3-triazol-2-yl)phenethyl)-22-benzyl-13-isobutyl-12-methyl-7,11,14,20-tetraoxo-7,8,9,10,11,12,13,14,17,18,19,19a,20,21,22,23-hexadecahydro-16H-pyrido[2′,11:6,7][1]oxa[4,7,10,14]tetraazacycloheptadecino[16,17-f]quinoline-9-carboxamide] are 6.23 and 119%.
The corresponding values for `Cc1cc(CCNC(=O)[C@@H]2CC(=O)N(C)[C@@H](CC(C)C)C(=O)N3CCCC[C@@H]3C(=O)N[C@H](Cc3ccccc3)COc3ccc4ncccc4c3C(=O)N2)on1` [Example 474, (9S,13S,19aR,22R)-22-benzyl-13-isobutyl-12-methyl-N-(2-(3-methylisoxazol-5-yl)ethyl)-7,11,14,20-tetraoxo-7,8,9,10,11,12,13,14,17,18,19,19a,20,21,22,23-hexadecahydro-16H-pyrido[2′,11:6,7][1]oxa[4,7,10,14]tetraazacycloheptadecino[16,17-f]quinoline-9-carboxamide] are 6.32 and 359%.
In the case of `Cc1cc(CCNC(=O)[C@@H]2CC(=O)N(C)[C@@H](CC(C)C)C(=O)N3CCN(S(=O)(=O)c4cccnc4)C[C@@H]3C(=O)N[C@H](Cc3ccccc3)COc3ccc4ccccc4c3C(=O)N2)on1` [Example 475, (4aR,7R,18S,22S)-7-benzyl-22-isobutyl-21-methyl-N-(2-(3-methylisoxazol-5-yl)ethyl)-5,16,20,23-tetraoxo-3-(pyridin-3-ylsulfonyl)-2,3,4,4a,5,6,7,8,16,17,18,19,20,21,22,23-hexadecahydro-1H-naphtho[1,2-p]pyrazino[2,1-f][1]oxa[4,7,10,14]tetraazacycloheptadecine-18-carboxamide], the pEC50 was 6.00 and the Emax amounted to 314%.
The corresponding values for `CC(C)C[C@H]1C(=O)N(C)C2(CC2)C(=O)N[C@H](Cc2ccccc2)COc2cnc3ccccc3c2C(=O)N[C@H](C(=O)NCCc2cc(C3CC3)no2)CC(=O)N1C` [Example 476, (3′S,7′S,13′R)-13′-benzyl-N-(2-(3-cyclopropylisoxazol-5-yl)ethyl)-7′-isobutyl-6′,9′-dimethyl-1′,5′,8′,11′-tetraoxo-2′,3′,4′,5′,6′,7′,8′,9′,11′,12′,13′,14′-dodecahydro-1′H-spiro[cyclopropane-1,10′-[1]oxa[4,7,10,14]tetraazacycloheptadecino[17,16-c]quinoline]-3′-carboxamide] are 6.48 and 344%.
In the same order, the values of `COc1nccc2c1C(=O)N[C@H](C(=O)NCCc1cc(C)no1)CC(=O)N(C)[C@@H](CC(C)C)C(=O)N1CCCC[C@@H]1C(=O)N[C@H](Cc1ccccc1)CO2` [Example 477, (7S,11S,17aR,20R)-20-benzyl-11-isobutyl-4-methoxy-10-methyl-N-(2-(3-methylisoxazol-5-yl)ethyl)-5,9,12,18-tetraoxo-5,6,7,8,9,10,11,12,15,16,17,17a,18,19,20,21-hexadecahydro-14H-dipyrido[2,1-f:3′,4′-p][1]oxa[4,7,10,14]tetraazacycloheptadecine-7-carboxamide] are 6.12 and 327%.
In the same order, the values of `COc1nccc2c1C(=O)N[C@H](C(=O)NCCc1c(F)cccc1F)CC(=O)N(C)[C@@H](CC(C)C)C(=O)N1CCCC[C@@H]1C(=O)N[C@H](Cc1ccccc1)CO2` [Example 478, (7S,11S,17aR,20R)-20-benzyl-N-(2,6-difluorophenethyl)-11-isobutyl-4-methoxy-10-methyl-5,9,12,18-tetraoxo-5,6,7,8,9,10,11,12,15,16,17,17a,18,19,20,21-hexadecahydro-14H-dipyrido[2,1-f:3′,4′-p][1]oxa[4,7,10,14]tetraazacycloheptadecine-7-carboxamide] are 6.77 and 337%.
Turning to `COc1cncc(S(=O)(=O)N2CCN3C(=O)[C@H](CC(C)C)N(C)C(=O)C[C@@H](C(=O)NCCc4cc(C)no4)NC(=O)c4c(ccc5ccccc45)OC[C@@H](Cc4ccccc4)NC(=O)[C@H]3C2)c1` [Example 479, (4aR,7R,18S,22S)-7-benzyl-22-isobutyl-3-((5-methoxypyridin-3-yl)sulfonyl)-21-methyl-N-(2-(3-methylisoxazol-5-yl)ethyl)-5,16,20,23-tetraoxo-2,3,4,4a,5,6,7,8,16,17,18,19,20,21,22,23-hexadecahydro-1H-naphtho[1,2-p]pyrazino[2,1-f][1]oxa[4,7,10,14]tetraazacycloheptadecine-18-carboxamide], the pEC50 is 6.32 and the Emax amounted to 253%.
For the compound `Cc1cc(CCNC(=O)[C@@H]2CC(=O)N(C)[C@@H](CC(C)C)C(=O)N3CCCC[C@@H]3C(=O)N[C@H](Cc3ccccc3)COc3cnc4ccc(F)cc4c3C(=O)N2)on1` [Example 480, (9S,13S,19aR,22R)-22-benzyl-5-fluoro-13-isobutyl-12-methyl-N-(2-(3-methylisoxazol-5-yl)ethyl)-7,11,14,20-tetraoxo-7,8,9,10,11,12,13,14,17,18,19,19a,20,21,22,23-hexadecahydro-16H-pyrido[2′,11:6,7][1]oxa[4,7,10,14]tetraazacycloheptadecino[17,16-c]quinoline-9-carboxamide], the pEC50 was 6.70 and the Emax turned out to be 276%.
